Experimental data as given in patent US11053204B2, “Pyrimidinyloxy benzene derivatives as herbicides” (FMC Corporation, priority 2015, dated 2021).

Key:
Format in all cases: in vivo
rice (Oryza sativa) = assay: Test B flooded paddy test, plant response rating; conditions: 250 g ai/ha; Flood; scale of 0 to 100 where 0 is no effect and 100 is complete control; 13 to 15 days
Outline: (§1)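 Ratings were visual and made relative to untreated controls after 13 to 15 greenhouse days.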

[1] = test system: ducksalad (Heteranthera limosa); assay: Test B flooded paddy test, plant response rating; conditions: 250 g ai/ha; Flood; scale of 0 to 100 where 0 is no effect and 100 is complete control; 13 to 15 days
Outline: as §1

[2] = test system: sedge, umbrella (small-flower umbrella sedge, Cyperus difformis); assay: Test B flooded paddy test, plant response rating; conditions: 250 g ai/ha; Flood; scale of 0 to 100 where 0 is no effect and 100 is complete control; 13 to 15 days
Outline: as §1

[3] = test system: barnyardgrass (Echinochloa crus-galli); assay: Test B flooded paddy test, plant response rating; conditions: 250 g ai/ha; Flood; scale of 0 to 100 where 0 is no effect and 100 is complete control; 13 to 15 days
Outline: as §1

[4] = test system: giant foxtail (Setaria faberii); assay: Test A preemergence, visual injury rating; conditions: for Plant response rating, Foxtail, Giant: 31 g ai/ha, 0 to 100 scale, 0 no effect, 100 complete control; for Foxtail, Giant plant response rating: 0 to 100 scale (0 no effect, 100 complete control)
Outline: (§2)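 Pre- and postemergence greenhouse screen. Soil: loam + sand. Spray carrier: solvent mixture, non-phytotoxic, with surfactant. Post timing at 1–2 leaves, height 2–10 cm. Readout: visual injury on a 0–100 scale roughly 10 days after application, untreated plants as reference.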

[5] = test system: pigweed (Amaranthus retroflexus); assay: Test A preemergence, visual injury rating; conditions: for Plant response rating, Pigweed: 31 g ai/ha, 0 to 100 scale, 0 no effect, 100 complete control; for Pigweed plant response rating: 0 to 100 scale (0 no effect, 100 complete control)
Outline: as §2

[6] = test system: Italian ryegrass (Lolium multiflorum); assay: Test A preemergence, visual injury rating; conditions: for Plant response rating, Ryegrass, Italian: 31 g ai/ha, 0 to 100 scale, 0 no effect, 100 complete control; for Ryegrass, Italian plant response rating: 0 to 100 scale (0 no effect, 100 complete control)
Outline: as §2

[7] = test system: ragweed (common ragweed, Ambrosia elatior); assay: Test A preemergence, visual injury rating; conditions: for Plant response rating, Ragweed: 31 g ai/ha, 0 to 100 scale, 0 no effect, 100 complete control; for Ragweed plant response rating: 0 to 100 scale (0 no effect, 100 complete control)
Outline: as §2

[8] = test system: barnyardgrass (Echinochloa crus-galli); assay: Test A preemergence, visual injury rating; conditions: for Plant response rating, Barnyardgrass: 31 g ai/ha, 0 to 100 scale, 0 no effect, 100 complete control; for Barnyardgrass plant response rating: 0 to 100 scale (0 no effect, 100 complete control)
Outline: as §2

kochia (Kochia scoparia) [9] = assay: Test A preemergence, visual injury rating; conditions: for Plant response rating, Kochia: 31 g ai/ha, 0 to 100 scale, 0 no effect, 100 complete control; for Kochia plant response rating: 0 to 100 scale (0 no effect, 100 complete control)
Outline: as §2

[10] = test system: wheat (Triticum aestivum); assay: Test A postemergence, visual injury rating; conditions: 0 is no effect, 100 is complete control; for Wheat plant response rating: 0 to 100 scale, approximately 10 days
Outline: as §2

[11] = test system: giant foxtail (Setaria faberii); assay: Test A postemergence, visual injury rating; conditions: 0 is no effect, 100 is complete control; for Foxtail, Giant plant response rating: 31 g ai/ha, 0 to 100 scale, approximately 10 days
Outline: as §2

[12] = test system: galium (catchweed bedstraw, Galium aparine); assay: Test A postemergence, visual injury rating; conditions: 0 is no effect, 100 is complete control; for Galium plant response rating: 31 g ai/ha, 0 to 100 scale, approximately 10 days
Outline: as §2

corn (Zea mays) = assay: Test A postemergence, visual injury rating; conditions: 0 is no effect, 100 is complete control; for Corn plant response rating: 31 g ai/ha, 0 to 100 scale, approximately 10 days
Outline: as §2

[13] = test system: pigweed (Amaranthus retroflexus); assay: Test A postemergence, visual injury rating; conditions: 0 is no effect, 100 is complete control; for Pigweed plant response rating: 0 to 100 scale, approximately 10 days
Outline: as §2

[14] = test system: Italian ryegrass (Lolium multiflorum); assay: Test A postemergence, visual injury rating; conditions: 0 is no effect, 100 is complete control; for Ryegrass, Italian plant response rating: 0 to 100 scale, approximately 10 days
Outline: as §2

[15] = test system: blackgrass (Alopecurus myosuroides); assay: Test A postemergence, visual injury rating; conditions: 0 is no effect, 100 is complete control; for Blackgrass plant response rating: 31 g ai/ha, 0 to 100 scale, approximately 10 days
Outline: as §2

[16] = test system: ragweed (common ragweed, Ambrosia elatior); assay: Test A postemergence, visual injury rating; conditions: 0 is no effect, 100 is complete control; for Ragweed plant response rating: 0 to 100 scale, approximately 10 days
Outline: as §2

[17] = test system: barnyardgrass (Echinochloa crus-galli); assay: Test A postemergence, visual injury rating; conditions: 0 is no effect, 100 is complete control; for Barnyardgrass plant response rating: 31 g ai/ha, 0 to 100 scale, approximately 10 days
Outline: as §2

kochia (Kochia scoparia) [18] = assay: Test A postemergence, visual injury rating; conditions: 0 is no effect, 100 is complete control; for Kochia plant response rating: 0 to 100 scale, approximately 10 days
Outline: as §2

[19] = test system: ragweed (common ragweed, Ambrosia elatior); assay: Test C preemergence, plant response rating; conditions: Preemergence
Outline: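 Visual injury score, 0 = no effect, 100 = complete control, assigned against untreated controls after 13 to 15 d in the greenhouse. Compounds were applied in a surfactant-containing non-phytotoxic solvent mix, preemergence to seeded loam/sand or silt loam soil, or postemergence to 1- to 4-leaf plants (2 to 18 cm).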

Compound | Plant response rating, Rice (rice (Oryza sativa)) | Plant response rating, Ducksalad [1] | Plant response rating, Sedge, Umbrella [2] | Plant response rating, Barnyardgrass [3] | Foxtail, Giant plant response rating ([4]; 125 g ai/ha) | Pigweed plant response rating ([5]; 125 g ai/ha) | Ryegrass, Italian plant response rating ([6]; 125 g ai/ha) | Ragweed plant response rating ([7]; 125 g ai/ha) | Barnyardgrass plant response rating ([8]; 125 g ai/ha) | Kochia plant response rating (kochia (Kochia scoparia) [9]; 125 g ai/ha) | Wheat plant response rating ([10]; 125 g ai/ha) | Foxtail, Giant plant response rating (0 to 100 scale) ([11]; 125 g ai/ha) | Galium plant response rating (0 to 100 scale) ([12]; 125 g ai/ha) | Corn plant response rating (0 to 100 scale) (corn (Zea mays); 125 g ai/ha) | Pigweed plant response rating ([13]; 125 g ai/ha) | Ryegrass, Italian plant response rating ([14]; 125 g ai/ha) | Blackgrass plant response rating (0 to 100 scale) ([15]; 125 g ai/ha) | Ragweed plant response rating ([16]; 125 g ai/ha) | Barnyardgrass plant response rating (0 to 100 scale) ([17]; 125 g ai/ha) | Kochia plant response rating (kochia (Kochia scoparia) [18]; 125 g ai/ha) | other results
O=C(CCCC(F)(F)F)c1c(Br)cccc1Oc1ncc(Cl)cn1 [Compound 77] | 0 | 85 | 100 | 15 | 100 | 100 | 70 | 0 | 100 | 100 | 10 | 90 | 100 | 30 | 100 | 60 | 50 | 0 | 90 | 100 | Plant response rating, Foxtail, Giant [4]: 100; Plant response rating, Pigweed [5]: 100; Plant response rating, Ryegrass, Italian [6]: 0; Plant response rating, Ragweed [7]: 0; Plant response rating, Barnyardgrass [8]: 20; Plant response rating, Kochia (kochia (Kochia scoparia) [9]): 80; Wheat plant response rating ([10]; 31 g ai/ha): 0; Foxtail, Giant plant response rating [11]: 30; Galium plant response rating [12]: 90; Corn plant response rating (corn (Zea mays)): 10; Pigweed plant response rating ([13]; 31 g ai/ha): 100; Ryegrass, Italian plant response rating ([14]; 31 g ai/ha): 20; Blackgrass plant response rating [15]: 20; Ragweed plant response rating ([16]; 31 g ai/ha): 0; Barnyardgrass plant response rating [17]: 30; Kochia plant response rating (kochia (Kochia scoparia) [18]; 31 g ai/ha): 100; Plant response rating, Ragweed ([19]; 125 g ai/ha, scale of 0 to 100): 45; Plant response rating, Ragweed ([19]; 16 g ai/ha, scale 0 to 100): 0; Plant response rating, Ragweed ([19]; 31 g ai/ha, scale 0 to 100): 0; Plant response rating, Ragweed ([19]; 62 g ai/ha, scale 0 to 100): 40
CCCCC(=O)c1c(Br)cccc1Oc1ncc(Cl)cn1 [Compound 79] | 45 | 90 | 100 | 60 | 100 | 100 | 90 | 30 | 100 | 80 | 20 | 80 | 90 | 80 | 100 | 90 | 50 | 30 | 90 | 100 | Foxtail, Giant plant response rating ([4]; 500 g ai/ha): 100; Pigweed plant response rating ([5]; 500 g ai/ha): 100; Ryegrass, Italian plant response rating ([6]; 500 g ai/ha): 100; Ragweed plant response rating ([7]; 500 g ai/ha): 90; Barnyardgrass plant response rating ([8]; 500 g ai/ha): 100; Kochia plant response rating (kochia (Kochia scoparia) [9]; 500 g ai/ha): 100; Wheat plant response rating (0 to 100 scale) ([10]; 500 g ai/ha): 30; Foxtail, Giant plant response rating (0 to 100 scale) ([11]; 500 g ai/ha): 80; Galium plant response rating (0 to 100 scale) ([12]; 500 g ai/ha): 100; Corn plant response rating (0 to 100 scale) (corn (Zea mays); 500 g ai/ha): 90; Pigweed plant response rating (0 to 100 scale) ([13]; 500 g ai/ha): 100; Ryegrass, Italian plant response rating (0 to 100 scale) ([14]; 500 g ai/ha): 90; Blackgrass plant response rating (0 to 100 scale) ([15]; 500 g ai/ha): 90; Ragweed plant response rating (0 to 100 scale) ([16]; 500 g ai/ha): 40; Barnyardgrass plant response rating (0 to 100 scale) ([17]; 500 g ai/ha): 100; Kochia plant response rating (0 to 100 scale) (kochia (Kochia scoparia) [18]; 500 g ai/ha): 100; Plant response rating, Ragweed ([19]; 125 g ai/ha, scale of 0 to 100): 30; Plant response rating, Ragweed ([19]; 16 g ai/ha, scale 0 to 100): 0; Plant response rating, Ragweed ([19]; 31 g ai/ha, scale 0 to 100): 0; Plant response rating, Ragweed ([19]; 62 g ai/ha, scale 0 to 100): 20
N#Cc1cccc(Oc2ncc(Cl)cn2)c1COCCC(F)(F)F [Compound 80] | 55 | 100 | 100 | 75 | 100 | 100 | 50 | 20 | 100 | 100 | 40 | 90 | 90 | 60 | 100 | 50 | 90 | 30 | 90 | 70 | Plant response rating, Foxtail, Giant [4]: 90; Plant response rating, Pigweed [5]: 100; Plant response rating, Ryegrass, Italian [6]: 0; Plant response rating, Ragweed [7]: 0; Plant response rating, Barnyardgrass [8]: 60; Plant response rating, Kochia (kochia (Kochia scoparia) [9]): 100; Wheat plant response rating ([10]; 31 g ai/ha): 0; Foxtail, Giant plant response rating [11]: 30; Galium plant response rating [12]: 60; Corn plant response rating (corn (Zea mays)): 10; Pigweed plant response rating ([13]; 31 g ai/ha): 80; Ryegrass, Italian plant response rating ([14]; 31 g ai/ha): 0; Blackgrass plant response rating [15]: 30; Ragweed plant response rating ([16]; 31 g ai/ha): 10; Barnyardgrass plant response rating [17]: 30; Kochia plant response rating (kochia (Kochia scoparia) [18]; 31 g ai/ha): 50; Plant response rating, Ragweed ([19]; 125 g ai/ha, scale of 0 to 100): 20; Plant response rating, Ragweed ([19]; 31 g ai/ha, scale 0 to 100): 0; Plant response rating, Ragweed ([19]; 62 g ai/ha, scale 0 to 100): 5
